Results reported in paper PMC8041751, “Structural basis for an exceptionally strong preference for asparagine residue at the S2 subsite of Stenotrophomonas maltophilia dipeptidyl peptidase 7” (Scientific Reports, 2021).
Residues, ends and D or L forms follow the SMILES beside them.

Key:
SmDPP7 = assay: Inhibition assay using dipeptide library, Tyr-Tyr-MCA hydrolysis; format: biochemical, Stenotrophomonas maltophilia; conditions: for Ki: Xaa-Tyr as competitive inhibitor, substrate 200 µM Tyr-Tyr-MCA, pH 7.0, 298 K, Ki from IC50 by Cheng-Prusoff
Method: Figure 1 Effect of Xaa-Tyr dipeptides on the hydrolytic activity of SmDPP7 towards synthetic substrate Tyr-Tyr-MCA. Inhibition assay was performed as described in “Materials and methods”. Residual activity was measured under conditions where 200 µM Xaa-Tyr dipeptide and 200 µM Tyr-Tyr-MCA, synthetic substrate were added into the reaction solution. […] The standard deviations were obtained from three independent experiments.
The dipeptide library was purchased from AnaSpec (Fremont, CA, US). Ile-Tyr and Arg-Tyr were synthesized by Eurofins Genomics (Tokyo, Japan). Cys-Tyr and Cys-Asp could not be purchased commercially. Different concentrations (3.13, 6.25, 12.5, 25, 50, 100, and 200 µM) of dipeptides as the inhibitor and 200 µM Tyr-Tyr-MCA (GenScript, NJ, US) as the substrate for DPP7 were added into a reaction buffer consisting of 50 mM sodium phosphate buffer pH 7.0, 5 mM EDTA and 0.005% Tween 20. For DPP11s, different concentrations (1.56, 3.13, 6.25, 12.5, 25, 50, and 100 µM) of dipeptides as the inhibitor and 100 µM Leu-Asp-MCA (Peptide Institute, Osaka, Japan) as the substrate were used. The enzyme reaction was performed at 298 K for 20 min and standard deviations were calculated from three independent experiments. Half-maximal inhibitory concentration (IC50) values were determined by fitting to a sigmoid curve (4-parameter logistic curve) using ImageJ software[35] and inhibition constants (Ki) were calculated using the Cheng-Prusoff Equation[36]. The fluorescence intensity of the released MCA was measured with the same method of determination of kinetics parameters toward dipeptidyl MCA.

wild-type SmDPP7 = assay: Isothermal titration calorimetry of dipeptide binding; set-up: species or system Stenotrophomonas maltophilia; conditions: ITC, 50 mM sodium phosphate pH 7.0, 2.5% dimethyl sulfoxide, 25 °C
Method: Figure 6 Thermodynamic parameters of dipeptide binding of SmDPP7. The value of thermodynamic parameters is represented in Table S3. The dissociation constant (Kd) and heats of binding (ΔH) were obtained using MICROCAL PEAQ-ITC Analysis software (Malvern, UK). Gibbs free energy (ΔG) and entropy energy (ΔS) were calculated according to the equation, ΔG = − RT ln Ka = RT ln Kd (Ka = 1/ Kd, association constants). Standard deviations were obtained from three independent experiments.
The bindings were analysed using a MICROCAL PEAQ-ITC microcalorimeter (Malvern, UK). The binding reactions were performed in 50 mM sodium phosphate pH 7.0 and 2.5% dimethyl sulfoxide at 25 °C and were stirred at 750 rpm. A single injection of 0.4 μl and 19 times injections of 2.0 μl of the dipeptide solution were injected into 350 μl of enzyme solution (wild-type SmDPP7). The wild-type SmDPP7 concentration was 25 µM and the concentration of each dipeptide solution was 250 µM in reaction buffer. Each injection was performed for 4 s with an interval of 150 s between injections. The dissociation constant (Kd) and heats of binding (ΔH) were obtained using MICROCAL PEAQ-ITC Analysis software (Malvern, UK). Gibbs free energy (ΔG) values were calculated according to ΔG = − RT ln Ka = RT ln Kd (Ka = 1/ Kd, association constants).

Compound | Ki (SmDPP7) [µM] | Kd (wild-type SmDPP7) [µM] | Effect on hydrolytic activity of SmDPP7 (residual activity) (SmDPP7; 200 µM Xaa-Tyr dipeptide and 200 µM Tyr-Tyr-MCA, Fig. 1)
CC(C)[C@H](N)C(=O)N[C@@H](Cc1ccc(O)cc1)C(=O)O [Val-Tyr] (H-Val-Tyr-OH) | 55.2 ± 0.5 | > 40 | –
Tyr-Tyr | 7.66 ± 1.27 | 6.17 ± 0.39 | markedly inhibited
